According to PubChem BioAssay (NCI):
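Cultured in 96-well plates, cells were exposed to test compound for 48 hours across five concentrations. TGI marks complete inhibition of growth.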

Legend:
Assay in all cases: NCI-60 cell line screen, 48 h
ACHN renal = system: ACHN renal
MDA-MB-435 = system: MDA-MB-435
NCI-H226 lung = system: NCI-H226 lung
NCI-H522 lung = system: NCI-H522 lung
K-562 leukemia = system: K-562 leukemia
RXF-631 renal = system: RXF-631 renal
SK-MEL-2 melanoma = system: SK-MEL-2 melanoma
MDA-N = system: MDA-N
CCRF-CEM leukemia = system: CCRF-CEM leukemia
CAKI-1 renal = system: CAKI-1 renal
HCT-15 colon = system: HCT-15 colon
NCI-H460 lung = system: NCI-H460 lung
786-0 renal = system: 786-0 renal
HS 578T breast = system: HS 578T breast
OVCAR-4 ovarian = system: OVCAR-4 ovarian
M14 melanoma = system: M14 melanoma
NCI/ADR-RES ovarian = system: NCI/ADR-RES ovarian
HOP-18 NSCLC = system: HOP-18 NSCLC
UACC-257 melanoma = system: UACC-257 melanoma
DLD-1 colon = system: DLD-1 colon
TK-10 renal = system: TK-10 renal
U251 CNS = system: U251 CNS
SNB-19 CNS = system: SNB-19 CNS
BT-549 breast = system: BT-549 breast
SF-539 CNS = system: SF-539 CNS
SNB-75 CNS = system: SNB-75 CNS
SW-620 colon = system: SW-620 colon
OVCAR-5 ovarian = system: OVCAR-5 ovarian
SNB-78 CNS = system: SNB-78 CNS
COLO 205 colon = system: COLO 205 colon
T-47D breast = system: T-47D breast
M19-MEL melanoma = system: M19-MEL melanoma
SF-268 CNS = system: SF-268 CNS
HT29 colon = system: HT29 colon
SR leukemia = system: SR leukemia
HL-60(TB) leukemia = system: HL-60(TB) leukemia
MALME-3M melanoma = system: MALME-3M melanoma
SF-295 CNS = system: SF-295 CNS
NCI-H23 lung = system: NCI-H23 lung
LXFL 529 NSCLC = system: LXFL 529 NSCLC
MCF7 breast = system: MCF7 breast
KM20L2 colon = system: KM20L2 colon
DMS 114 small cell lung = system: DMS 114 small cell lung
UACC-62 melanoma = system: UACC-62 melanoma
LOX IMVI melanoma = system: LOX IMVI melanoma
A498 renal = system: A498 renal
MDA-MB-231 breast = system: MDA-MB-231 breast
HOP-62 NSCLC = system: HOP-62 NSCLC
IGROV1 ovarian = system: IGROV1 ovarian
HOP-92 NSCLC = system: HOP-92 NSCLC
OVCAR-3 ovarian = system: OVCAR-3 ovarian
PC-3 prostate = system: PC-3 prostate
HCT-116 colon = system: HCT-116 colon
MOLT-4 leukemia = system: MOLT-4 leukemia
RPMI-8226 leukemia = system: RPMI-8226 leukemia
EKVX NSCLC = system: EKVX NSCLC
OVCAR-8 ovarian = system: OVCAR-8 ovarian
DU-145 prostate = system: DU-145 prostate
A549 NSCLC = system: A549 NSCLC
SK-MEL-5 melanoma = system: SK-MEL-5 melanoma
KM12 colon = system: KM12 colon
UO-31 renal = system: UO-31 renal
SK-OV-3 ovarian = system: SK-OV-3 ovarian
HCC-2998 colon = system: HCC-2998 colon
SK-MEL-28 melanoma = system: SK-MEL-28 melanoma
SN12C renal = system: SN12C renal
DMS 273 small cell lung = system: DMS 273 small cell lung
RXF 393 renal = system: RXF 393 renal

`CN1CCN(Cc2nc3cccc4c3c([n+]2[O-])-c2ccccc2-4)CC1` gave a TGI (ACHN renal) greater than 68.7 µM, a TGI (MDA-MB-435) of 34 µM and a TGI (NCI-H226 lung) greater than 68.1 µM. For the same molecule, the TGI (NCI-H522 lung) was greater than 48.5 µM, the TGI (K-562 leukemia) was greater than 100 µM and the TGI (RXF-631 renal) was greater than 100 µM. For the same molecule, the TGI (SK-MEL-2 melanoma) was greater than 54.3 µM, the TGI (MDA-N) was greater than 100 µM and the TGI (CCRF-CEM leukemia) was greater than 82.8 µM. The TGI (CAKI-1 renal) was 96.9 µM, the TGI (HCT-15 colon) was greater than 100 µM and the TGI (NCI-H460 lung) was greater than 100 µM. For the same molecule, the TGI (786-0 renal) was greater than 100 µM, the TGI (HS 578T breast) was 97.1 µM and the TGI (OVCAR-4 ovarian) was greater than 84.4 µM. For the same molecule, the TGI (M14 melanoma) was greater than 61.1 µM, the TGI (NCI/ADR-RES ovarian) was 48.3 µM and the TGI (HOP-18 NSCLC) was greater than 100 µM. It also gave a TGI (UACC-257 melanoma) greater than 64.1 µM, a TGI (DLD-1 colon) greater than 100 µM and a TGI (TK-10 renal) greater than 100 µM. The TGI (U251 CNS) was greater than 64 µM, the TGI (SNB-19 CNS) was greater than 100 µM and the TGI (BT-549 breast) was greater than 100 µM. It also gave a TGI (SF-539 CNS) greater than 88 µM, a TGI (SNB-75 CNS) of 66.6 µM and a TGI (SW-620 colon) greater than 100 µM. It also gave a TGI (OVCAR-5 ovarian) greater than 100 µM, a TGI (SNB-78 CNS) greater than 100 µM and a TGI (COLO 205 colon) greater than 59.7 µM. For the same molecule, the TGI (T-47D breast) was 76.9 µM, the TGI (M19-MEL melanoma) was greater than 100 µM and the TGI (SF-268 CNS) was greater than 66.5 µM. It also gave a TGI (HT29 colon) greater than 61.1 µM, a TGI (SR leukemia) of 31.8 µM and a TGI (HL-60(TB) leukemia) greater than 100 µM. It also gave a TGI (MALME-3M melanoma) greater than 50.2 µM, a TGI (SF-295 CNS) greater than 100 µM and a TGI (NCI-H23 lung) greater than 61.7 µM. It also gave a TGI (LXFL 529 NSCLC) greater than 100 µM, a TGI (MCF7 breast) of 84.9 µM and a TGI (KM20L2 colon) greater than 100 µM. For the same molecule, the TGI (DMS 114 small cell lung) was greater than 100 µM, the TGI (UACC-62 melanoma) was greater than 56.4 µM and the TGI (LOX IMVI melanoma) was greater than 51.5 µM. It also gave a TGI (A498 renal) greater than 53.1 µM, a TGI (MDA-MB-231 breast) of 44.3 µM and a TGI (HOP-62 NSCLC) greater than 100 µM. It also gave a TGI (IGROV1 ovarian) greater than 84.2 µM, a TGI (HOP-92 NSCLC) greater than 73.7 µM and a TGI (OVCAR-3 ovarian) greater than 100 µM. The TGI (PC-3 prostate) was 48.6 µM, the TGI (HCT-116 colon) was greater than 100 µM and the TGI (MOLT-4 leukemia) was greater than 69.4 µM. For the same molecule, the TGI (RPMI-8226 leukemia) was greater than 74.4 µM, the TGI (EKVX NSCLC) was greater than 100 µM and the TGI (OVCAR-8 ovarian) was 37.3 µM. It also gave a TGI (DU-145 prostate) of 32.1 µM, a TGI (A549 NSCLC) greater than 51.3 µM and a TGI (SK-MEL-5 melanoma) of 49.9 µM. For the same molecule, the TGI (KM12 colon) was greater than 66 µM, the TGI (UO-31 renal) was 66.4 µM and the TGI (SK-OV-3 ovarian) was greater than 100 µM. The TGI (HCC-2998 colon) was greater than 100 µM, the TGI (SK-MEL-28 melanoma) was greater than 62.6 µM and the TGI (SN12C renal) was greater than 100 µM. For the same molecule, the TGI (DMS 273 small cell lung) was greater than 100 µM and the TGI (RXF 393 renal) was 25.9 µM.

With `Nc1nc2c3c(ncn3CC(O)CO2)n1` (stereo not given) the TGI (ACHN renal) was greater than 100 µM, the TGI (NCI-H226 lung) was greater than 100 µM and the TGI (NCI-H522 lung) was greater than 100 µM. It also gave a TGI (K-562 leukemia) greater than 100 µM, a TGI (RXF-631 renal) greater than 100 µM and a TGI (SK-MEL-2 melanoma) greater than 100 µM. The TGI (CCRF-CEM leukemia) was greater than 100 µM, the TGI (CAKI-1 renal) was greater than 100 µM and the TGI (HCT-15 colon) was greater than 100 µM. It also gave a TGI (NCI-H460 lung) greater than 100 µM, a TGI (786-0 renal) greater than 100 µM and a TGI (OVCAR-4 ovarian) greater than 100 µM. For the same molecule, the TGI (M14 melanoma) was greater than 100 µM, the TGI (HOP-18 NSCLC) was greater than 100 µM and the TGI (UACC-257 melanoma) was greater than 100 µM. The TGI (DLD-1 colon) was greater than 100 µM, the TGI (TK-10 renal) was greater than 100 µM and the TGI (U251 CNS) was greater than 100 µM. It also gave a TGI (SNB-19 CNS) greater than 100 µM, a TGI (SF-539 CNS) greater than 100 µM and a TGI (SNB-75 CNS) of 29 µM. It also gave a TGI (SW-620 colon) greater than 100 µM, a TGI (OVCAR-5 ovarian) greater than 100 µM and a TGI (SNB-78 CNS) greater than 100 µM. For the same molecule, the TGI (COLO 205 colon) was greater than 100 µM, the TGI (M19-MEL melanoma) was 19.4 µM and the TGI (SF-268 CNS) was greater than 100 µM. The TGI (HT29 colon) was 28.6 µM, the TGI (SR leukemia) was greater than 100 µM and the TGI (HL-60(TB) leukemia) was greater than 100 µM. For the same molecule, the TGI (MALME-3M melanoma) was greater than 100 µM, the TGI (SF-295 CNS) was greater than 100 µM and the TGI (NCI-H23 lung) was greater than 100 µM. It also gave a TGI (LXFL 529 NSCLC) greater than 100 µM, a TGI (KM20L2 colon) greater than 100 µM and a TGI (DMS 114 small cell lung) greater than 100 µM. For the same molecule, the TGI (UACC-62 melanoma) was greater than 100 µM, the TGI (LOX IMVI melanoma) was greater than 100 µM and the TGI (A498 renal) was greater than 100 µM. The TGI (HOP-62 NSCLC) was greater than 100 µM, the TGI (IGROV1 ovarian) was greater than 100 µM and the TGI (HOP-92 NSCLC) was greater than 100 µM. For the same molecule, the TGI (OVCAR-3 ovarian) was greater than 100 µM, the TGI (HCT-116 colon) was greater than 100 µM and the TGI (MOLT-4 leukemia) was greater than 100 µM. It also gave a TGI (RPMI-8226 leukemia) greater than 100 µM, a TGI (OVCAR-8 ovarian) greater than 100 µM and a TGI (A549 NSCLC) greater than 100 µM. It also gave a TGI (SK-MEL-5 melanoma) greater than 100 µM, a TGI (KM12 colon) greater than 100 µM and a TGI (UO-31 renal) greater than 100 µM. For the same molecule, the TGI (SK-OV-3 ovarian) was greater than 100 µM, the TGI (HCC-2998 colon) was greater than 100 µM and the TGI (SK-MEL-28 melanoma) was greater than 100 µM. It also gave a TGI (SN12C renal) greater than 100 µM, a TGI (DMS 273 small cell lung) greater than 100 µM and a TGI (RXF 393 renal) greater than 100 µM.
